Test results published in ChEMBL document CHEMBL1153812, “Hydrolytic cleavage of DNA by urea-bridged macrocyclic polyamines” (Eur J Med Chem, 2009).
Activity calls are given as the source filed them. No cut-off for these calls is given here.

What was measured:
Format in all cases: nucleic-acid assay
Nucleic Acid [1] = test: Binding affinity to calf thymus duplex DNA assessed as change in viscosity of DNA at 20 mM by viscometric analysis; conditions: Bos taurus
Nucleic Acid [2] = test: Induction of supercoiled Escherichia coli pUC19 DNA cleavage assessed as formation of open-circular DNA at 357 uM after 36 hrs by agarose gel electrophoresis
Nucleic Acid [3] = test: Binding affinity to calf thymus duplex DNA assessed as thermal melting temperature at 0.11 mM by UV-visible spectrophotometry; conditions: Bos taurus
Nucleic Acid [4] = test: Induction of supercoiled Escherichia coli pUC19 DNA cleavage assessed as formation of open-circular DNA at 357 uM after 36 hrs by agarose gel electrophoresis in presence of hydroxyl radical scavenger t-BuOH
Nucleic Acid [5] = test: Induction of supercoiled Escherichia coli pUC19 DNA cleavage assessed as formation of open-circular DNA at 357 uM after 36 hrs by agarose gel electrophoresis in presence of […]
Nucleic Acid [6] = test: Induction of supercoiled Escherichia coli pUC19 DNA cleavage assessed as formation of open-circular DNA at 0.285 mM after 36 hrs by TBARS method in presence of hydroxy radical
Nucleic Acid [7] = test: Induction of supercoiled Escherichia coli pUC19 DNA cleavage assessed as formation of open-circular DNA at 286 uM by agarose gel electrophoresis; conditions: TDE = time-dependent effect
Nucleic Acid [8] = test: Induction of supercoiled Escherichia coli pUC19 DNA cleavage assessed as formation of open-circular DNA at 143 uM after 36 hrs by agarose gel electrophoresis
Nucleic Acid [9] = test: Induction of supercoiled Escherichia coli pUC19 DNA cleavage assessed as formation of open-circular DNA at 214 uM after 36 hrs by agarose gel electrophoresis
Nucleic Acid [10] = test: Induction of supercoiled Escherichia coli pUC19 DNA cleavage assessed as formation of open-circular DNA at 71 uM after 36 hrs by agarose gel electrophoresis
Nucleic Acid [11] = test: Induction of supercoiled Escherichia coli pUC19 DNA cleavage assessed as formation of open-circular DNA at 357 uM after 36 hrs by agarose gel electrophoresis in presence of hydroxyl radical scavenger DMSO
Nucleic Acid [12] = test: Induction of supercoiled Escherichia coli pUC19 DNA cleavage assessed as formation of open-circular DNA at 357 uM after 32 hrs by agarose gel electrophoresis
Nucleic Acid [13] = test: Induction of supercoiled Escherichia coli pUC19 DNA cleavage assessed as formation of open-circular DNA at 357 uM after 36 hrs by agarose gel electrophoresis in presence of singlet oxygen scavenger NaN3
Nucleic Acid [14] = test: Induction of supercoiled Escherichia coli pUC19 DNA cleavage assessed as formation of open-circular DNA at 286 uM after 36 hrs by agarose gel electrophoresis

Row | SMILES | Activity (Nucleic Acid [1]) | Activity (Nucleic Acid [2]) | Tm (Nucleic Acid [3]) [°C] | Activity (Nucleic Acid [4]) | Activity (Nucleic Acid [5]) | Activity (Nucleic Acid [6]) | Activity (Nucleic Acid [7]) | Activity (Nucleic Acid [8]) [%] | Activity (Nucleic Acid [9]) [%] | Activity (Nucleic Acid [10]) [%] | Activity (Nucleic Acid [11]) | Activity (Nucleic Acid [12]) [%] | Activity (Nucleic Acid [13]) | Activity (Nucleic Acid [14]) [%]
1 | CCNC(=O)NC(C)C(=O)N1CCNCCNCCNCC1 (stereo not given) | Active | Active | 77.6 | – | – | – | – | – | – | – | – | – | – | –
2 | COC(=O)C(C)NC(=O)NC(C)C(=O)OC (stereo not given) | Active | Active | 76.6 | – | – | – | – | – | – | – | – | – | – | –
3 | CC(NC(=O)NC(C)C(=O)N1CCNCCNCCNCC1)C(=O)N1CCNCCNCCNCC1 (stereo not given) | Active | 97% | 75.7 | Active | Active | Active | tde | 59 | 72 | 29 | Active | 97 | Active | 89
